Assay results from patent US20240299416A1, “TREATMENT OF NF-kB-MEDIATED DISEASE” (ReveraGen BioPharma, Inc., priority 2021, published 2024).

Tests used:
Type in all cases: in vivo, human
boys with DMD [1] = assay: VBP15-003/VBP15-LTE motor outcomes over 18 months vs CINRG DNHS; details: vs corticosteroid-naïve participants, ANCOVA
Source text: Assessments of efficacy were motor outcomes (primary outcome: time to stand from supine [TTSTAND]; secondary outcomes: time to run/walk 10 meters [TTRW], time to climb four stairs [TTCLIMB], distance covered in 6-minute walk test [6MWT], and the North Star Ambulatory Assessment [NSAA]). 6MWT and NSAA were not assessed in most CINRG DNHS participants and were not compared to vamorolone-treated participants. According to standard operating procedures, clinical evaluators were trained to harmonize the CINRG vamorolone, CINRG DNHS, and CINRG prednisone studies. Reliability of these outcomes (percent coefficient of variation) has been reported for the VBP15-002/VBP15-003 studies. Assessments were done at baseline (VBP15-002 entry), 24 weeks (VBP15-003 last visit), and 18 months (VBP15-LTE midpoint assessment at 12 months).
Only participants completing VBP15-002 and VBP15-003 were eligible to enroll in VBP15-LTE. […]
Statistical analyses were done on paired longitudinal outcome data using an analysis of covariance (ANCOVA) approach with change from baseline (VBP15-002) to month 18 (midpoint of VBP15-LTE). […] For the vamorolone-treated participants, age was calculated as (date of informed consent minus birthdate)/365.25. For the DNHS participants, age was calculated as (date of baseline visit used minus birthdate)/365.25. […]

[2] = Physician-reported adverse events, VBP15-LTE/DSUR vs published corticosteroid studies
Procedure: Study visits took place quarterly, including assessment of clinical laboratory results, vital signs, and AEs. All AEs were coded using the Medical Dictionary for Regulatory Activities (MedDRA version 19.0) system for reporting (preferred term and system organ class). Clinical efficacy assessments were performed at baseline of the VBP15-002 study, at six months (end of VBP15-003 study), and the 12-month midpoint visit of the VBP15-LTE study.
The incidences of physician-reported AEs typically for corticosteroid treatment were determined for participants that had been treated with vamorolone 6.0 mg/kg/day (for any duration), taken from the March 2019 Data Safety Update Report (DSUR) (pharmacovigilance report). Incidence rates of Cushingoid features, weight gain, hirsutism, and behavior change were studied (Table 8).

boys with DMD [3] = assay: VBP15-004 efficacy at Week 48; details: for 6MWT, change from baseline / NSAA, change from baseline / TTRW velocity, change from baseline / TTSTAND velocity, change from baseline: 6 mg/kg/day
Procedure: (§1) Subjects already on vamorolone continued on the allocated dose level. Efficacy at Week 48 was assessed by Time to Stand ([…]) velocity, 6-Minute Walk Test (6MWT), Time to Run/Walk 10 meters (TTRW) velocity, and North Star Ambulatory Assessment (NSAA). […] In contrast, the persistence of effects with vamorolone 2 mg/kg/day was less pronounced for some parameters. The safety profile was consistent for subjects who continued on the same dose of vamorolone throughout the study, with no increase in frequency or severity of adverse events being observed over time. […] In addition, vamorolone treatment at both doses reversed the growth impairment seen during prednisone treatment and was associated with fewer adverse events, including those associated with corticosteroid use.

[4] = VBP15-004 adverse events, Treatment Period 2 / cross-over
Procedure: as §1

[5] = 6.0 mg/kg/day vamorolone, any duration, DSUR Mar. 2019
[6] = Treatment Period 2 after switch from prednisone to vamorolone 6 mg/kg/day
[7] = after switch from prednisone to vamorolone 6 mg/kg/day

SMILES: C[C@@H]1C[C@H]2[C@@H]3CCC4=CC(=O)C=C[C@]4(C)C3=CC[C@]2(C)[C@@]1(O)C(=O)CO [Vamorolone, 17α,21-dihydroxy-16α-methylpregna-1,4,9(11)-triene-3,20-dione]
- TTCLIMB, LS mean difference (boys with DMD [1]): -0.34 s
- TTRW, LS mean difference (boys with DMD [1]): -0.84 s
- Incidence of Cushingoid [2, 5]: 2.6%
- Incidence of behavior change [2, 5]: 0%^2
- Incidence of hypertrichosis/hirsutism [2, 5]: 0%
- Incidence of weight gain [2, 5]: 13.2%
- Cushingoid features among the 14 probably/definitely related AEs ([2]; VBP15-LTE, DSMB report): 1
- TEAEs deemed definitely related ([2]; VBP15-LTE, DSMB report): three
- TEAEs deemed possibly related ([2]; VBP15-LTE, DSMB report): 29
- TEAEs deemed probably related ([2]; VBP15-LTE, DSMB report): 11
- TEAEs deemed remotely related ([2]; VBP15-LTE, DSMB report): 37
- TEAEs deemed unrelated ([2]; VBP15-LTE, DSMB report): 402
- increased appetite among the 14 probably/definitely related AEs ([2]; VBP15-LTE, DSMB report): 2
- irritability among the 14 probably/definitely related AEs ([2]; VBP15-LTE, DSMB report): 1
- serious AEs (all deemed unrelated to study drug) ([2]; VBP15-LTE, DSMB report): three
- weight gain among the 14 probably/definitely related AEs ([2]; VBP15-LTE, DSMB report): 10
- 6MWT, change from baseline (boys with DMD [3]; Week 24): 37 meters
- NSAA, change from baseline (boys with DMD [3]; Week 24): 3.4 points
- TTRW velocity, change from baseline (boys with DMD [3]; Week 24): 0.29 m/s
- TTSTAND velocity, change from baseline (boys with DMD [3]; Week 24): 0.052 rises/s
- 6MWT, change from baseline (boys with DMD [3]; Week 48): 48 meters
- NSAA, change from baseline (boys with DMD [3]; Week 48): 3.5 points
- TTRW velocity, change from baseline (boys with DMD [3]; Week 48): 0.23 m/s
- TTSTAND velocity, change from baseline (boys with DMD [3]; Week 48): 0.045 rises/s
- 6MWT distance (boys with DMD [3]; [6]): 408 meters
- NSAA (boys with DMD [3]; [6]): 26.2 points
- TTRW velocity (boys with DMD [3]; [6]): 2.20 m/s
- TTSTAND velocity (boys with DMD [3]; [6]): 0.27 rises/s
- serious adverse events reported during vamorolone treatment ([4]; Treatment Period 2): Three
- number of adverse events [4, 7]: 44
- number of adverse events reported as behavioral disorders [4, 7]: 6
- number of adverse events typically associated with corticosteroids [4, 7]: 16
- reduction in number of adverse events [4, 7]: 37%
- reduction in number of adverse events typically associated with corticosteroids [4, 7]: 60%
- overall safety and tolerability in clinical studies ([4]; in vivo): generally safe and well-tolerated
